Results: patent publication US9453028B2, “Protein kinase C inhibitors and uses thereof” (Rigel Pharmaceuticals, Inc., priority 2009, dated 2016)

Legend:
Human primary T cell = assay: IL-2 ELISA, human primary T cell, anti-CD3+CD28+ whole cell assay; assay type: cell-based; details: IL-2 by ELISA, human primary T cells stimulated with anti-CD3+CD28
Method: 2. IL-2 ELISA, Human Primary T Cell, Anti-CD3+CD28+ Assays
Human primary T cells were prepared as follows. Whole blood was obtained from a healthy volunteer, mixed 1:1 with PBS, layered on to Ficoll Hypaque (Amersham Pharmacia Biotech, Piscataway, N.J., Catalog #17-1440-03) in 2:1 blood/PBS:ficoll ratio and centrifuged for 30 minutes at 4° C. at 1750 rpm. The cells at the serum:ficoll interface were recovered and washed twice with 5 volumes of PBS. These freshly isolated human peripheral blood mononuclear cells were cultured in Yssel's medium containing 40 U/mL IL2 in a flask pre-coated with 1 μg/mL αCD3 and 5 μg/mL αCD28 (Anti-Human CD3, BD Pharmingen Catalog #555336, Anti-Human CD28, Beckman Coulter Catalog #1M1376). The cells were stimulated for 3-4 days, then transferred to a fresh flask and maintained in RPMI (RPMI-1640 with L-Glutamine; Mediatech, Inc., Herndon Va., cat. #10-040-CM) with 10% FBS and 40 U/mL IL-2. The primary T-cells were then washed twice with PBS to remove the IL-2.
Human primary T cells (100,000 cells per well) were pre-incubated with or without test compound in Yssel's medium for 1 hr at 37° C. Cells were then stimulated by transferring them to round-bottom 96-well plates pre-coated with 1 μg/ml αCD3 and 5 μg/ml αCD28. For counter assay, cells were instead stimulated by adding 8× stock solutions of PMA and ionomycin in Yssels (for final concentrations of 0.5 ng/ml PMA and 0.1 μM ionomycin, both from Calbiochem). Cells were incubated at 37° C. for 24 hours before 100 μL supernatants were harvested for quantification of IL-2 by ELISA using Human IL-2 Duoset ELISA Kit from R and D Systems, Cat. # DY202E.
(§1) Several subject compounds were tested according to procedures in the “Characterization of Functional Properties” section. PKC kinase activity was measured using the procedure Section A.1 (Protein Kinase C assay) with the appropriate isoform. The whole cell assay was run according to the procedure in Section A.2 (IL-2 ELISA, Human primary T cell, anti-CD3+CD28+ Assays). […] Blank entries indicate that the IC50 was not determined.

PKC-alpha = target: T1, PKC-alpha (Homo sapiens, UniProt P17252); assay: Protein Kinase C assay (fluorescence polarization), PKC-alpha; assay type: biochemical
T1 construct: purchased Oxford Biomedical Research
Method: (§2) The inhibition of PKC activity was measured by monitoring the production of phosphorylated peptide by fluorescence polarization at different concentrations of the inhibitor. Reactions were carried out in 96-well plate format with a total volume of 20 μL containing 20 mM HEPES, pH 7.4, 5 mM MgCl2, 0.2 mM CaCl2, 1 mM DTT, 0.02% Brij-35, 0.1 mg/mL phosphatidylserine, 0.02 mg/mL dioleoyl-sn-glycerol and 5 μM each of ATP and the peptide substrate. Compounds were first diluted serially in DMSO and then transferred to a solution containing the above concentrations of HEPES, MgCl2, CaCl2, DTT, and Brij-35 to yield 5× compound solutions in 2% DMSO, which was then added to the reaction solution. Reactions were initiated by the addition of PKC at a typical concentration as described in the table below, and then allowed to incubate at room temperature for 20 minutes. At the end of this time, a combination of quench (EDTA) and detection (peptide tracer and antibody) reagents was added using the protocol of Invitrogen P2748 (Carlsbad, Calif.), a Protein Kinase C Fluorescence polarization Assay Kit. After a 30 minute period of incubation, the amount of phosphorylated peptide generated was measured by fluorescence polarization (Ex=485 nm, Em=535 nm) using a Tecan Polarian instrument (Switzerland).
Human recombinant PKC α is obtained from Oxford Biomedical Research and is used under the assay conditions as described under Section A.1 above.
as §1

PKC-beta = target: T2, PKC-beta (Homo sapiens, UniProt P05771); assay: Protein Kinase C assay (fluorescence polarization), PKC-beta; assay type: biochemical
T2 construct: purchased Oxford Biomedical Research
Method: as §2
Human recombinant PKC β1 is obtained from Oxford Biomedical Research and is used under the assay conditions as described under Section A.1 above.
as §1

PKC-delta = target: T3, PKC-delta (Homo sapiens, UniProt Q05655); assay: Protein Kinase C assay (fluorescence polarization), PKC-delta; assay type: biochemical
T3 construct: purchased Oxford Biomedical Research
Method: as §2
Human recombinant PKC δ is obtained from Oxford Biomedical Research and is used under the assay conditions as described under Section A.1 above.
as §1

PKC-epsilon = target: T4, PKC-epsilon (Homo sapiens, UniProt Q02156); assay: Protein Kinase C assay (fluorescence polarization), PKC-epsilon; assay type: biochemical
T4 construct: purchased Upstate Biotechnologies, Temecula, CA 14-518
T4 sequence (Q02156 1-737): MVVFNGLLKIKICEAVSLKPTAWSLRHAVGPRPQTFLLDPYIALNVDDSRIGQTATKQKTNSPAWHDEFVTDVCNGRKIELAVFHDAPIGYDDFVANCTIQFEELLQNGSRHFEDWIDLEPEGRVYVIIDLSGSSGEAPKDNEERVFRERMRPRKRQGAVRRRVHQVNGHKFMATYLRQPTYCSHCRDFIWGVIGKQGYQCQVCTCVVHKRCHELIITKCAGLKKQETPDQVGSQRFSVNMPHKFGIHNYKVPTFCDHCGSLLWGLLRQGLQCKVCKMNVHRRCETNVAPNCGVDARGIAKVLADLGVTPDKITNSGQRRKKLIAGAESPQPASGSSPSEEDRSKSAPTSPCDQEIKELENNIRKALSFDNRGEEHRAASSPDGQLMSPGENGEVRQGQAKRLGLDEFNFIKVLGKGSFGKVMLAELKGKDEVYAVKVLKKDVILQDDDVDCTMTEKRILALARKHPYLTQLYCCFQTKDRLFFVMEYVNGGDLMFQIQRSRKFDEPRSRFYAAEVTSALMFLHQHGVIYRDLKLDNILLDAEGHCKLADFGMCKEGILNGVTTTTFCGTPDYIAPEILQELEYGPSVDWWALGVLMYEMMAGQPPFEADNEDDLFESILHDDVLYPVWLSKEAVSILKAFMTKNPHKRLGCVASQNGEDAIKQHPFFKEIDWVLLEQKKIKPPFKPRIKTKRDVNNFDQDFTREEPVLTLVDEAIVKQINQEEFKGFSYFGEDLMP
Method: as §2
Human recombinant PKC […] is obtained from Oxford Biomedical Research and is used under the assay conditions as described under Section A.1 above.
as §1

PKC-theta = target: T5, PKC-theta (Homo sapiens, UniProt Q04759); assay: Protein Kinase C assay (fluorescence polarization), PKC-theta; assay type: biochemical
T5 construct: purchased Upstate Biotechnologies, Temecula, CA 14-444
Method: as §2
Human recombinant PKC θ is used under the assay conditions as described above.
as §1

T2 sequence (P05771 whole entry): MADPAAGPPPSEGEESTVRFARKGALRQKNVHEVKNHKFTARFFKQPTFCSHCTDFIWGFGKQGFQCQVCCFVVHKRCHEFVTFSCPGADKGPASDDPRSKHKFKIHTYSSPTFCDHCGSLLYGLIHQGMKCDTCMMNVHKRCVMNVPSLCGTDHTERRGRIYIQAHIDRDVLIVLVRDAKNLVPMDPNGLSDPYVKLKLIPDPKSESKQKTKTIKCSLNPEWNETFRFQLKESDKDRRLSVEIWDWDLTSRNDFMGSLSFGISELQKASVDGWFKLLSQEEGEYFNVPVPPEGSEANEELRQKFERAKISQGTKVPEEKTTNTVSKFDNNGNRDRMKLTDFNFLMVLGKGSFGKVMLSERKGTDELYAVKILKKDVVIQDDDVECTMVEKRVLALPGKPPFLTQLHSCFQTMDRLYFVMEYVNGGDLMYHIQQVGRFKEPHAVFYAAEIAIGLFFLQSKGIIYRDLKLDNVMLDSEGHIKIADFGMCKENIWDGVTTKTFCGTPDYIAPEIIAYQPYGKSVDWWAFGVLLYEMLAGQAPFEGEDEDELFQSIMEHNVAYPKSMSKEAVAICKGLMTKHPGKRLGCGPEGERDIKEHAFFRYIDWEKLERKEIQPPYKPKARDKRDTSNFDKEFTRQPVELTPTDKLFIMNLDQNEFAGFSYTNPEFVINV
T5 sequence (Q04759 whole entry): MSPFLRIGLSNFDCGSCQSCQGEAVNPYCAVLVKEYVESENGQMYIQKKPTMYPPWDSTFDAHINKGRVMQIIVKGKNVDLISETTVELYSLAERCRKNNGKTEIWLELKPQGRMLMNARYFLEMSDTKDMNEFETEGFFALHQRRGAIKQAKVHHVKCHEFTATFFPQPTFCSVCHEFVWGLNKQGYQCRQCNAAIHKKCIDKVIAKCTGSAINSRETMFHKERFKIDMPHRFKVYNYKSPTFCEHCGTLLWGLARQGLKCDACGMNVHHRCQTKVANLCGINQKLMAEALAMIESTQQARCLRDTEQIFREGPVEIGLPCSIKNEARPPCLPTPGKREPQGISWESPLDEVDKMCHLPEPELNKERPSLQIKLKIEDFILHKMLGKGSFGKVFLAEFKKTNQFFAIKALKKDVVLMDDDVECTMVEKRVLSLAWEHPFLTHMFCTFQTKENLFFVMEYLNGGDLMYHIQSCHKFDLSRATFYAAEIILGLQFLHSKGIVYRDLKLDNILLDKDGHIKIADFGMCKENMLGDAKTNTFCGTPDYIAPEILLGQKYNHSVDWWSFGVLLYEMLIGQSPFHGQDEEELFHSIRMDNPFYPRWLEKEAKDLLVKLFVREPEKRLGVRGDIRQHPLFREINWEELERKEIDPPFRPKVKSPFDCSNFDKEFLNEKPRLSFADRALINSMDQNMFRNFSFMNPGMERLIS
T3 sequence (Q05655 whole entry): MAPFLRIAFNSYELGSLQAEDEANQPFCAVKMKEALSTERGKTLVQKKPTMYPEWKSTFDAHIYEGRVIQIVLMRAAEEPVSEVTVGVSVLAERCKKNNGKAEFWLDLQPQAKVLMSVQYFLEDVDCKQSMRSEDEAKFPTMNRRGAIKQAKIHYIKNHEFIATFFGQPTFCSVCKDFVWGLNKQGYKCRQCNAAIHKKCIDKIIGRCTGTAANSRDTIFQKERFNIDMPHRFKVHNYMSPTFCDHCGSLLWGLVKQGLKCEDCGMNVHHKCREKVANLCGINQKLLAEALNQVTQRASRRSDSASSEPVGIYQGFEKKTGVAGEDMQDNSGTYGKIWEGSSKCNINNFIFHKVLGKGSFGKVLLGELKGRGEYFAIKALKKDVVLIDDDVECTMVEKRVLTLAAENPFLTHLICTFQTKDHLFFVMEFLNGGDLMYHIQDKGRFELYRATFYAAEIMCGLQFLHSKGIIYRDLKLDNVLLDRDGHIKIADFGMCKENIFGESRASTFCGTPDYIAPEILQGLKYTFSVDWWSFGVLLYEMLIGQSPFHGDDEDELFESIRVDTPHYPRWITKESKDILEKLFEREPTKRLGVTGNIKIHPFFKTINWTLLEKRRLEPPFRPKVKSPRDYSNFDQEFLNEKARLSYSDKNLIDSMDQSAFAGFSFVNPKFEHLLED

| IC50 (Human primary T cell; T-cell) [nM] | IC50 (PKC-alpha) [nM] | IC50 (PKC-beta) [nM] | IC50 (PKC-delta) [nM] | IC50 (PKC-epsilon) [nM] | IC50 (PKC-theta) [nM] | IC50 (Human primary T cell) [nM] | Compound |
| --- | --- | --- | --- | --- | --- | --- | --- |
| < 250 | < 250 | < 250 | < 250 | < 250 | < 250 | – | CN1C(C)(C)CC(CNc2nc(Nc3ccc4c(c3)-n3nnnc3CO4)ncc2F)C1(C)C (stereo not drawn) [Compound 2-2, N2-(4H-benzo[b]tetrazolo[1,5-d][1,4]oxazin-8-yl)-5-fluoro-N4-((1,2,2,5,5-pentamethylpyrrolidin-3-yl)methyl)pyrimidine-2,4-diamine] |
| – | < 250 | < 250 | < 250 | < 250 | < 250 | < 250 | CC1C[C@@H](CNc2nc(Nc3ccc4c(c3)-n3nnnc3C(C)(C)O4)ncc2F)C(C)(C)N1 (stereo partly drawn) [Compound 2-7, N2-(4,4-dimethyl-4H-benzo[b]tetrazolo[1,5-d][1,4]oxazin-8-yl)-5-fluoro-N4-(((3S)-2,2,5-trimethylpyrrolidin-3-yl)methyl)pyrimidine-2,4-diamine] |
| – | < 250 | 250 to 500 | < 250 | < 250 | < 250 | 250 to 500 | CC1C[C@H](CNc2nc(Nc3ccc4c(c3)-n3nnnc3C(C)(C)O4)ncc2F)C(C)(C)N1 (stereo partly drawn) [Compound 2-8, N2-(4,4-dimethyl-4H-benzo[b]tetrazolo[1,5-d][1,4]oxazin-8-yl)-5-fluoro-N4-(((3R)-2,2,5-trimethylpyrrolidin-3-yl)methyl)pyrimidine-2,4-diamine] |
